Among the data in ChEMBL document CHEMBL3044769, “A brief synthesis of natural antifeedant, 1-(2,4,6-trimethoxyphenyl) but-2(E)-en-1-one” (1994) are Activity values, retold here.

This assay has as its system Spodoptera litura. As to the kind of experiment: Antifeedant activity in Spodoptera litura assessed as feeding ratio at 0.1% of the diet. It counts as functional.

`C/C=C/C(=O)c1c(OC)cc(OC)cc1OC`: the Activity is 50.5%.
